In general, Ki refers to the dissociation constant of the complex between target and ligand, obtained from inhibition or displacement. Low readings indicate higher affinity, high ones lower affinity.

Positions of bridges follow the written chain, without caps; N, C: chain ends. Non-standard residues stand in square brackets, D forms with d. Residues, ends and D or L forms follow the SMILES beside them. *: point of attachment. Threoninol(2S,3R) = C[C@@H](O)[C@H](CO)N*

For seven compounds, Ki, inhibition and Ratio Ki results are on record in ChEMBL document CHEMBL3217560, “Synthesis and binding affinities for sst receptors of cyclic peptoid SRIF-mimetics” (Medchemcomm, 2012).

In assay [1] the target is Somatostatin receptor type 3 (Homo sapiens, UniProt P32745). Put plainly: Displacement of [125I]-somatostatin from human sst3 receptor after 2 hrs by beta scintillation counting analysis. For orientation: Loss of bound radioactivity is the signal in a displacement assay; it reports binding, not function.
Sequence of Somatostatin receptor type 3 (P32745 whole entry): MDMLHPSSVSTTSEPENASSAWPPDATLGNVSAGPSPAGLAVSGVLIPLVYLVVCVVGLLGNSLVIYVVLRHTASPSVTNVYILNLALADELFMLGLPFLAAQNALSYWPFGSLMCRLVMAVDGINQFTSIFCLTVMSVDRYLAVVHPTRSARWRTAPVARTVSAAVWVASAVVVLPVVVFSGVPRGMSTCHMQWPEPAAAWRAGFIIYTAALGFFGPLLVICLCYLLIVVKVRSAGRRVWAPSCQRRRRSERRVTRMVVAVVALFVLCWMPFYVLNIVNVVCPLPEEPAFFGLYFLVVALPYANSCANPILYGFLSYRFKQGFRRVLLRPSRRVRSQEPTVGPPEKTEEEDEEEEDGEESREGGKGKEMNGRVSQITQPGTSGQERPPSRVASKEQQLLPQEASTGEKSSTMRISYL
Assay [2] addresses Somatostatin receptor type 5 (Homo sapiens, UniProt P35346). Put plainly: Displacement of [125I]-somatostatin from human sst5 receptor after 2 hrs by beta scintillation counting analysis.
Assay [3] deals with Somatostatin receptor type 1 (Homo sapiens, UniProt P30872). Put plainly: Displacement of [125I]-somatostatin from human sst1 receptor after 2 hrs by beta scintillation counting analysis.
Sequence of Somatostatin receptor type 1 (P30872 whole entry): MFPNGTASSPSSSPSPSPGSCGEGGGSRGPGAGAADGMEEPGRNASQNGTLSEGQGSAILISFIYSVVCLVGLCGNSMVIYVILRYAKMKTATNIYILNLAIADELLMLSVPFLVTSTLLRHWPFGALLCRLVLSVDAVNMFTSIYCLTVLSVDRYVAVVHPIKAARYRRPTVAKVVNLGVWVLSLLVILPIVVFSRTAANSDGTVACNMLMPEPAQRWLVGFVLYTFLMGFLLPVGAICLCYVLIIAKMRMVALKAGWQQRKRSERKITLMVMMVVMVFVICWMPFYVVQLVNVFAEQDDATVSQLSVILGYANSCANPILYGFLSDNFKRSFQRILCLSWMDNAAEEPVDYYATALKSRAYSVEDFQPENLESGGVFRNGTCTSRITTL
For assay [4], the target named is Somatostatin receptor type 4 (Homo sapiens, UniProt P31391). Put plainly: Displacement of [125I]-somatostatin from human sst4 receptor after 2 hrs by beta scintillation counting analysis.
Sequence of Somatostatin receptor type 4 (P31391 whole entry): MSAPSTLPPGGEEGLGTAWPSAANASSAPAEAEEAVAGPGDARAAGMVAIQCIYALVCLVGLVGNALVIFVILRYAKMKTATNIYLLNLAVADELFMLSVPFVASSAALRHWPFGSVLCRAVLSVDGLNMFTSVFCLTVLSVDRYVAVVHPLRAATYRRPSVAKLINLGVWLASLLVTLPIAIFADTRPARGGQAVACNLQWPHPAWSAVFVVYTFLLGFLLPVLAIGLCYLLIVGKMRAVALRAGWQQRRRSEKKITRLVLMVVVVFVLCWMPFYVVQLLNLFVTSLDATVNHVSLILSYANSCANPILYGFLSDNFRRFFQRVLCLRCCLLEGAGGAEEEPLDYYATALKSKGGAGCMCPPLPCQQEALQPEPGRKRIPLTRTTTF
Assay [5] addresses Somatostatin receptor type 2 (Homo sapiens, UniProt P30874). Put plainly: Displacement of [125I]-somatostatin from human sst2a receptor after 2 hrs by beta scintillation counting analysis.
The species entered for assay [6] is Homo sapiens. Put plainly: Selectivity ratio of Ki for human sst2a receptor to Ki or human sst4 receptor.
Assay [7] is filed under the species Homo sapiens. Put plainly: Selectivity ratio of Ki for human sst1 receptor to Ki for human sst4 receptor.

Sequence of Somatostatin receptor type 5 (P35346 whole entry): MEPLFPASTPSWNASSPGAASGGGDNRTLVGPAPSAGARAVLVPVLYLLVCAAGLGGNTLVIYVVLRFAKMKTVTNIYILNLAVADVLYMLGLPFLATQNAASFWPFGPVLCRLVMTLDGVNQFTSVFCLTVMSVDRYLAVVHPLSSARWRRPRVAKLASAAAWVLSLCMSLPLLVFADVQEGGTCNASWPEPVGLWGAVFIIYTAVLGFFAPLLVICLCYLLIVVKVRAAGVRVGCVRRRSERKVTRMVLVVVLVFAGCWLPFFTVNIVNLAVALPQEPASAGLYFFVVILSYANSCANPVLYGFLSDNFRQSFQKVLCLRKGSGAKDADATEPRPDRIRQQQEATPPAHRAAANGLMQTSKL
Sequence of Somatostatin receptor type 2 (P30874 whole entry): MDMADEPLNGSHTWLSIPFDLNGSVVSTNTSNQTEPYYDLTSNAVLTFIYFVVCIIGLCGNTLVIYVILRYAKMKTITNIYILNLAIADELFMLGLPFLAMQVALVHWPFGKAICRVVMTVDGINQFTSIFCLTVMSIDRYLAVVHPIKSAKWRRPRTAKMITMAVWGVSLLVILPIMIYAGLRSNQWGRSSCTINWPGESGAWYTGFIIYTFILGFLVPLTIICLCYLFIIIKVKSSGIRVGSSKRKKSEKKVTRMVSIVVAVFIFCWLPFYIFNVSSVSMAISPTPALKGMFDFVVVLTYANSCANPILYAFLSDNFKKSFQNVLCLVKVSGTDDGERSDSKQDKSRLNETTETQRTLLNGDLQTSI

`C[C@@H](O)CN1CCC(=O)N(Cc2ccccc2)CCC(=O)N(Cc2ccccc2)CCC(=O)N(CCc2c[nH]c3ccccc23)CCC(=O)N(CCCCN)CCC1=O`: the Ki in assay [1] came out at 4.6 µM; in assay [2], 1.7 µM; in assay [3], 8.2 µM; in assay [4] it was 10 µM; in assay [5] it was 44 µM. In addition, the inhibition entry in assay [1], in assay [2], in assay [3], in assay [4] and in assay [5] was “Dose-dependent effect” throughout.

`COC(=O)CCN(Cc1ccccc1)C(=O)CCN(C[C@@H](C)O)C(=O)CCN(CCCCN)C(=O)CCN(CCc1c[nH]c2ccccc12)C(=O)CCN(Cc1ccccc1)C(C)=O`: the inhibitory constant (Ki) in assay [1] amounted to 2.7 µM; in assay [2] it was 11 µM; in assay [3], 12 µM; in assay [4], 12 µM; in assay [5], 55 µM. Besides, the inhibition result in assay [1], in assay [2], in assay [3], in assay [4] and in assay [5] was “Dose-dependent effect” in each case.

As to `C[C@@H](O)[C@H](CO)NC(=O)[C@@H]1CSSC[C@H](NC(=O)[C@H](N)Cc2ccccc2)C(=O)N[C@@H](Cc2ccccc2)C(=O)N[C@H](Cc2c[nH]c3ccccc23)C(=O)N[C@@H](CCCCN)C(=O)N[C@@H]([C@@H](C)O)C(=O)N1` (H-[dF]CF[dW]KTC-{Threoninol(2S,3R)}; disulfide 2-7), the inhibition result in assay [1], in assay [3], in assay [4] and in assay [5] was “Dose-dependent effect” in each case.

As for `C[C@@H](O)CN1CCC(=O)N(Cc2ccccc2)CCC(=O)N(CCc2c[nH]c3ccccc23)CC(=O)N(CCCCN)CCC1=O`, the Ki in assay [1] amounted to 17 µM; in assay [2], 9.5 µM; in assay [3], 153 µM; in assay [4], 20 µM; in assay [5] it was 176 µM. The inhibition entry in assay [1], in assay [2], in assay [3], in assay [4] and in assay [5] was “Dose-dependent effect” in each case.

Take `C[C@@H](O)CN1CCC(=O)N(Cc2ccccc2)CCC(=O)N(CCc2c[nH]c3ccccc23)CCC(=O)N(CCCCN)CCC1=O`: the Ki in assay [1] was 22 µM; in assay [2], 28 µM; in assay [3], 102 µM; in assay [4], 4.9 µM; in assay [5] it was 198 µM. Moreover, the inhibition result in assay [1], in assay [2], in assay [3], in assay [4] and in assay [5] was “Dose-dependent effect” each time. Moreover, the Ratio Ki in the assay listed under Homo sapiens [6] is 40; in the assay listed under Homo sapiens [7] it was 20.

For `C[C@@H](O)CN1CCC(=O)N(Cc2ccccc2)CCC(=O)N(Cc2ccccc2)CCC(=O)N(CCc2c[nH]c3ccccc23)CC(=O)N(CCCCN)CCC1=O`, the inhibition constant Ki in assay [1] came to 2.4 µM; in assay [2], 2.1 µM; in assay [3] it was 16 µM; in assay [4] it was 7.2 µM; in assay [5], 27 µM. Further, the inhibition result in assay [1], in assay [2], in assay [3], in assay [4] and in assay [5] was “Dose-dependent effect” each time.

On to `COC(=O)CCN(Cc1ccccc1)C(=O)CCN(C[C@@H](C)O)C(=O)CCN(CCCCN)C(=O)CN(CCc1c[nH]c2ccccc12)C(=O)CCN(Cc1ccccc1)C(C)=O`, for which the Ki in assay [1] was 3.1 µM; in assay [2], 13.2 µM; in assay [3] it was 16 µM; in assay [4], 21 µM; in assay [5] it was 110 µM. For the same compound, the inhibition entry in assay [1], in assay [2], in assay [3], in assay [4] and in assay [5] was “Dose-dependent effect” throughout.
